Reference: patent US10081632B2, “Substituted tetrahydropyrido[3′,2′:4,5]pyrrolo[1,2-α]pyrazine-2-carboxamides as RSK inhibitors” (Phoenix Molecular Designs, priority 2016, dated 2018)

Assays:
MDA-MB-468 cells [1] = assay: Monolayer growth inhibition, crystal violet assay; type: cell-based; settings: Homo sapiens; MDA-MB-468 (TNBC), 5 days, single dose on day 1
Description: (§1) In all instances a single dose was given on day 1 of the experiment. […] Complete (100%) growth suppression was achievable with several of the compounds in multiple different cell lines.

JIMT-1 cells [2] = assay: Monolayer growth inhibition, crystal violet assay; type: cell-based; settings: Homo sapiens; JIMT-1 (HER2), 5 days, single dose on day 1
Description: as §1

HCC1937 cells [3] = assay: Monolayer growth inhibition, crystal violet assay; type: cell-based; settings: Homo sapiens; HCC1937 (TNBC, BRCA Mutant), 5 days, single dose on day 1
Description: as §1

T47D cells [4] = assay: Monolayer growth inhibition, crystal violet assay; type: cell-based; settings: Homo sapiens; T47D (ER/PR), 5 days, single dose on day 1
Description: as §1

[5] = tested on: phosphorylated Y-box binding protein-1 (YB-1) at serine 102 (P-YB-1S102); assay: Immunoblotting of cell signalling, loss of P-YB-1 in MDA-MB-231 cells; settings: Homo sapiens, MDA-MB-231, read-out: IC50 values for P-YB-1
Method: Following desired experimental conditions, breast cancer cell lines grown and treated in 6 well plates or 100 mm culture dishes (Grenier Bio-One) were placed on ice and the supernatant from each well was removed and the cells were washed in cold PBS. Following removal of PBS, cells were exposed to radioimmunoprecipitation assay (RIPA) buffer (50 mM Tris-HCl (pH 8), 150 mM NaCl, 1% NP-40, 0.5% sodium deoxycholate, 0.1% SDS; Fisher Scientific) supplemented with 1% phosphatase inhibitor (Fisher Scientific) and 1% protease inhibitor (Fisher Scientific) for 10 minutes. Samples were transferred to eppendorf tubes, vortexed and then centrifuged at 14 000 rpm for 10 minutes. Supernatants were collected as whole cell lysates.
To begin, the protein content of the lysates was measured using the Bicinchoninic Acid (BCA) Protein Assay Kit (Pierce), which included a protein standard curve generated with bovine serum albumin. Appropriate volumes of samples and loading buffer (50 mM Tris-HCl (pH 6.8), 2% SDS, 10% glycerol, 1% j-mercaptoethanol, 12.5 mM EDTA, 0.02% bromophenol blue) were mixed, ensuring that equal amounts of protein were loaded. For the majority of experiments in this study, 30 μg of protein per well was loaded. Samples were then resolved on SDS-PAGE (polyacrylamide gel electrophoresis) using various percentages of acrylamide gels (8%-12%), depending on the proteins of interest. SDS-PAGE was run in SDS running buffer (25 mM Tris, 192 mM glycine, 0.1% SDS) and then transferred to nitrocellulose membranes (Bio-Rad) in transfer buffer (48 mM Tris, 39 mM glycine, 20% (v/v) methanol) at 100 volts for 90 minutes at room temperature. Immunoblots were then blocked in 5% skim milk in tris-buffered saline with 0.1% Tween-20 (TBS-T; 50 mM Tris-HCl, pH 7.5, 150 mM NaCl, 0.1% (v/v) Tween-20 (Fisher Scientific)) for 1 to 2 hours. Immunoblots were then incubated with selected primary antibodies diluted in TBS-T with 0.1% gelatin (Bio-Rad) and 0.05% sodium azide (Alfa Aesar) overnight. Following washes with TBT-T 4 times for 8 to 10 minutes, immunoblots were incubated with appropriate secondary antibodies conjugated to horseradish peroxidise (Cell Signalling Technology) diluted in TBS-T plus 5% skim milk at a ratio of 1:5000 for 2 hours at room temperature. After an additional round of washes in TBS-T, immunoblots were exposed to combined enhanced chemiluminescence (ECL) reagents (Fisher Scientific) for 1 minute and developed using ChemiDoc MP Imaging System (Bio-Rad). For certain immunoblots, bands of proteins of interest were scanned and band intensity ratios were determined by densitometric analysis (ImageJ). […] Total YB-1 was used as a loading control (1:5000 Abcam). […] To assess whether cells are actively undergoing cell death, the activity of poly ADP ribose polymerase (PARP) (1:1000 CST) was also measured using the immunoblotting method.

MDA-MB-435 cells [6] = assay: Monolayer growth inhibition, crystal violet assay; type: cell-based; settings: Homo sapiens; MDA-MB-435 (Melanoma), 5 days, single dose on day 1
Description: (§2) In all instances a single dose was given on day 1 of the experiment.

HCC1143 cells [7] = assay: Monolayer growth inhibition, crystal violet assay; type: cell-based; settings: Homo sapiens; HCC1143 (TNBC), 5 days, single dose on day 1
Description: as §2

PC3 cells [8] = assay: Monolayer growth inhibition, crystal violet assay; type: cell-based; settings: Homo sapiens, PC-3; PC3 (Prostate), 5 days, single dose on day 1
Description: as §2

SUM149-PTXR cells [9] = assay: Monolayer growth inhibition, crystal violet assay; type: cell-based; settings: Homo sapiens; SUM149-PTXR (TNBC, BRCA Mutant), 5 days, single dose on day 1
Description: as §2

MDA-MB-231 cells [10] = assay: Monolayer growth inhibition, crystal violet assay; type: cell-based; settings: Homo sapiens; MDA-MB-231 (TNBC), 5 days, single dose on day 1
Description: as §2

SUM149 cells [11] = assay: Monolayer growth inhibition, crystal violet assay; type: cell-based; settings: Homo sapiens; SUM149 (TNBC, BRCA Mutant), 5 days, single dose on day 1
Description: as §2

4T1 cells [12] = assay: Monolayer growth inhibition, crystal violet assay; type: cell-based; settings: Mus musculus; 4T1 (TNBC), 5 days, single dose on day 1
Description: as §2

T47D cells [13] = assay: Monolayer growth inhibition, Alamar blue assay; type: cell-based, Human; settings: Homo sapiens; T47D (ER/PR), 5 days, single dose on day 1
Description: as §2

SUM149-PTXR cells [14] = assay: Monolayer growth inhibition, Alamar blue assay; type: cell-based, Human; settings: Homo sapiens; SUM149-PTXR (TNBC, BRCA Mutant), 5 days, single dose on day 1
Description: as §2

4T1 cells [15] = assay: Soft agar growth inhibition assay; type: cell-based; settings: Mus musculus; 4T1 (TNBC), 14-22 days; read-out: IC50 Values - Soft Agar (14-22 Days)
Method: Two agar (Alfa Aesar) solutions (0.8% w/v and 0.4% w/v) were prepared in ultrapure water. The 0.8% agar solution was mixed in equal volumes with 2× media previously prepared from powder (Life Technologies) following the manufacturer's instructions and filter sterilized. The 0.8% agar and media solution was added to 24 well plates (Mandel Scientific) at 500 μl per well. The plates were placed in a humidified incubator at 37° C. with 5% CO2. Next, the 0.4% agar solution was mixed in equal volumes with 2× media. Breast cancer cell lines were added to this solution to achieve a final concentration of 2×10^4 cells per well and […] was added to each well on top of the bottom agar and media layer. […] The plates were returned to the incubator for 10-32 days, with a re-dosing of compounds or DMSO every 7 days. After 10-32 days, colonies were counted in 3 different fields of view for each well.
Representative compounds described herein were tested in the soft agar growth inhibition assay against the 4T1 breast cancer cell line.

All cell lines [16] = assay: Monolayer growth inhibition, crystal violet assay, range over all cell lines; type: cell-based; settings: 120 h; range of IC50 over all cell lines of the table; read-out: IC50 Values - Crystal Violet (5 Days), Range, All
Description: as §1

MDA-MB-468 cells [17] = assay: Monolayer growth inhibition, Alamar blue assay; type: cell-based; settings: Homo sapiens; MDA-MB-468 (TNBC), 5 days, single dose on day 1
Description: as §2

JIMT-1 cells [18] = assay: Monolayer growth inhibition, Alamar blue assay; type: cell-based; settings: Homo sapiens; JIMT-1 (HER2), 5 days, single dose on day 1
Description: as §2

MDA-MB-435 cells [19] = assay: Monolayer growth inhibition, Alamar blue assay; type: cell-based; settings: Homo sapiens; MDA-MB-435 (Melanoma), 5 days, single dose on day 1
Description: as §2

HCC1143 cells [20] = assay: Monolayer growth inhibition, Alamar blue assay; type: cell-based; settings: Homo sapiens; HCC1143 (TNBC), 5 days, single dose on day 1
Description: as §2

HCC1937 cells [21] = assay: Monolayer growth inhibition, Alamar blue assay; type: cell-based; settings: Homo sapiens; HCC1937 (TNBC, BRCA Mutant), 5 days, single dose on day 1
Description: as §2

PC3 cells [22] = assay: Monolayer growth inhibition, Alamar blue assay; type: cell-based; settings: Homo sapiens, PC-3; PC3 (Prostate), 5 days, single dose on day 1
Description: as §2

MDA-MB-231 cells [23] = assay: Monolayer growth inhibition, Alamar blue assay; type: cell-based; settings: Homo sapiens; MDA-MB-231 (TNBC), 5 days, single dose on day 1
Description: as §2

SUM149 cells [24] = assay: Monolayer growth inhibition, Alamar blue assay; type: cell-based; settings: Homo sapiens; SUM149 (TNBC, BRCA Mutant), 5 days, single dose on day 1
Description: as §2

4T1 cells [25] = assay: Monolayer growth inhibition, Alamar blue assay; type: cell-based; settings: Mus musculus; 4T1 (TNBC), 5 days, single dose on day 1
Description: as §2

All cell lines [26] = assay: Monolayer growth inhibition, Alamar blue assay, range over all cell lines; type: cell-based; settings: 120 h; range of IC50 over all cell lines of the table; read-out: IC50 Values - Alamar Blue (5 Days), Range, All
Description: as §2

MDA-MB-468 cells [27] = assay: Soft agar growth inhibition assay; type: cell-based, Human; settings: Homo sapiens; MDA-MB-468 (TNBC), 14-22 days
MDA-MB-231 cells [28] = assay: Soft agar growth inhibition assay; type: cell-based; settings: Homo sapiens
[29] = Solubility assessment, 20 mg/ml solution; type: physicochemical; settings: 100 mM in DMSO diluted in DMEM growth media to 20 mg/ml
Method: Solubility is an important property for therapeutic drug candidates. Poor solubility can lead to low bioavailability resulting in suboptimal drug delivery. It can also prevent the evaluation of test agents in animals because the concentration(s) needed to achieve the desired effect cannot be achieved to poor solubility. For solubility assessments, small molecules targeting RSK were compared. For these assessments, 100 mM solutions of the compounds dissolved in DMSO were diluted in DMEM growth media (Life Technologies) supplemented with fetal bovine serum (FBS, Life Technologies) and 100 units/ml penicillin and 100 units/ml streptomycin (Life Technologies) to make 20 mg/ml solutions. Once diluted, the solutions were vortexed and examined for the formation of precipitates. […] For Compound 26, a 100 mM solution of the compound dissolved in DMSO was diluted in phosphate buffered saline (Life Technologies) to make a 20 mg/ml solution. The stock of […] was chosen because this is the upper end of what would be required to dose mice for a range of studies including MTD, PK, PD and efficacy. The pH of this solution was determined to be 2, as previously described. […] At high concentrations some RSK inhibitors were highly soluble while others were not. Compound 0 is (R)—N-(1-benzyl-1H-pyrazol-4-yl)-9-methyl-6-oxo-6,7,8,9-tetrahydropyrido[3′,2′:4,5]pyrrolo[1,2-a]pyrazine-2-carboxamide. Compound 0 was not soluble, whereas Compounds 18, 20, 21, 25 and 26 were soluble under the same conditions (Table 5).

MDA-MB-231 cells [30] = assay: Combination with paclitaxel, monolayer growth (crystal violet); settings: MDA-MB-231 cells + 0.3 nM PTX, 5 days
Method: 1×10^3 cells per well were seeded for a final volume of 200 μl per well and plates were incubated for 5 days at 37° C. in a humidified incubator with 5% CO2. Following the incubation period, cell survival was quantified by Alamar blue assay (Life Technologies). Briefly, media from each well was replaced with 100 μl of phosphate buffer saline (PBS, Life Technologies) and cells were incubated with 5% Alamar blue, which incorporates a propriety redox indicator that changes colour in response to metabolic activity, for up to 2 hours. During this period of incubation, the absorbance at 570 nm and 600 nm was measured at various time points, depending on the cell line or sample. Percent survival was calculated by comparing the absorbance ratio of the test well to the control well multiplied by 100%, as indicated in the following formula:
Following, plates were prepared for crystal violet staining. To begin, 100 μl of an 8% formaldehyde (Alfa Aesar) solution diluted in PBS was added to each well and plates were stored at 4° C. overnight. Next, the formaldehyde solution was discarded and the wells were washed with 200 μl ultrapure water per well three times. Following, 50 μl of a 0.5% crystal violet solution (0.5% w/v crystal violet (Alfa Aesar), 25% methanol (VWR)) was added to each well and incubated at room temperature for 20 minutes. The crystal violet solution was discarded and wells were washed with 200 μl ultrapure water per well three times. Next, 50 μl of a 5% sodium dodecyl sulphate (SDS) (Alfa Aesar) was added to each well and the absorbance at 590 nm was measured.

CD34+ cells = assay: Colony forming unit hematopoietic stem cell assay; type: cell-based, human
Method: The hematopoietic colony forming cell assay was conducted based on a protocol outlined by StemCell Technologies. […] Following the addition of CD34^+ cells isolated from human cord blood or peripheral blood (StemCell Technologies) at a final concentration of 5×10^2 cells per dish, the tubes were vortexed and allowed to stand for 5 minutes at room temperature. Next, the MethoCult mixtures were dispensed into 35 mm dishes (Corning Incorporated) through blunt end needles (StemCell Technologies) and 5 ml syringes (BD Biosciences) at a volume of 1.1 ml per dish. The medium was evenly distributed across the surface of each dish by gentle tilting and rotation. The dishes were then placed in a 100 mm culture dish (Grenier Bio-One) containing additional 35 mm dishes with sterile water to maintain humidity. […] The number of myeloid and erythroid derived colonies in both the treated and control dishes were counted and compared.

[31] = MDA-MB-231 (TNBC), 14-22 days, read-out: IC50 Values - Soft Agar (14-22 Days)

| SMILES | IC50 (MDA-MB-468 cells [1]) [µM] | IC50 (JIMT-1 cells [2]) [µM] | IC50 (HCC1937 cells [3]) [µM] | IC50 (T47D cells [4]) [µM] | IC50 [5] [µM] | IC50 (MDA-MB-435 cells [6]) [µM] | IC50 (HCC1143 cells [7]) [µM] | IC50 (PC3 cells [8]) [µM] | IC50 (SUM149-PTXR cells [9]) [µM] | IC50 (MDA-MB-231 cells [10]) [µM] | IC50 (SUM149 cells [11]) [µM] | IC50 (4T1 cells [12]) [µM] | IC50 (T47D cells [13]) [µM] | IC50 (SUM149-PTXR cells [14]) [µM] | IC50 (4T1 cells [15]) [µM] | IC50 (All cell lines [16]) [µM] | IC50 (MDA-MB-468 cells [17]) [µM] | IC50 (JIMT-1 cells [18]) [µM] | IC50 (MDA-MB-435 cells [19]) [µM] | IC50 (HCC1143 cells [20]) [µM] | further results |
| --- | --- | --- | --- | --- | --- | --- | --- | --- | --- | --- | --- | --- | --- | --- | --- | --- | --- | --- | --- | --- | --- |
| C[C@@H]1CNC(=O)c2c(Cl)c3ccc(C(=O)Nc4cnn(Cc5ccccc5)c4)nc3n21 [Compound 24, (R)—N-(1-benzyl-1H-pyrazol-4-yl)-5-chloro-9-methyl-6-oxo-6,7,8,9-tetrahydropyrido[3′,2′:4,5]pyrrolo[1,2-a]pyrazine-2-carboxamide] | 3.3 ± 1.3 | 7.5 ± 2.2 | 5.8 ± 0.4 | 2.7 ± 2.1 | 0.016 | 5 ± 3.6 | 5.8 ± 2.6 | 6.5 ± 2.8 | 4.5 ± 1.4 | 9.1 ± 1.3 | 0.9 ± 0.3 | 0.3 ± 0.1 | 4.5 ± 4.1 | 3.4 ± 2.1 | 0.7 ± 0.3 | 0.3 to 9.1 | 4.5 ± 2.3 | 12.3 ± 5.9 | 5.6 ± 0.1 | 4.4 ± 1.9 | IC50 (HCC1937 cells [21]): 9.2 ± 3.2 µM; IC50 (PC3 cells [22]): 12 ± 4.5 µM; IC50 (MDA-MB-231 cells [23]): 9.8 ± 3.1 µM; IC50 (SUM149 cells [24]): 1.1 ± 0.9 µM; IC50 (4T1 cells [25]): 0.5 ± 0.3 µM; IC50 (All cell lines [26]): 0.5 to 12.3 µM; IC50 (MDA-MB-468 cells [27]): 2.5 ± 2 µM; IC50 (MDA-MB-231 cells [28]; [31]): 0.4 ± 0.2 µM; Solubility, 20 mg/ml Solution [29]: Precipitate |
| C[C@@H]1CNC(=O)c2cc3ccc(C(=O)Nc4cnn(Cc5ccc(F)cc5F)c4)nc3n21 [Compound 23, (R)—N-(1-(2,4-difluorobenzyl)-1H-pyrazol-4-yl)-9-methyl-6-oxo-6,7,8,9-tetrahydropyrido[3′,2′:4,5]pyrrolo[1,2-a]pyrazine-2-carboxamide] | 7.2 ± 1.5 | 15 ± 6.1 | 8.6 ± 3 | 4.7 ± 4.9 | 0.033 | 1.1 ± 0.8 | 7.3 ± 3.4 | 6.8 ± 1.8 | 5 ± 2.4 | 3.6 ± 0.8 | 2.1 ± 1.6 | 1.8 ± 0.8 | 6 ± 4.9 | 5.1 ± 4 | 2.4 ± 0.6 | 1.1 to 15 | 9.7 ± 1.8 | 19.8 ± 7.1 | 1.1 ± 0.7 | 9.7 ± 1.3 | IC50 (HCC1937 cells [21]): 10.5 ± 1 µM; IC50 (PC3 cells [22]): 10.7 ± 1.1 µM; IC50 (MDA-MB-231 cells [23]): 7.8 ± 2 µM; IC50 (SUM149 cells [24]): 3 ± 2.4 µM; IC50 (4T1 cells [25]): 2.5 ± 0.8 µM; IC50 (All cell lines [26]): 1.1 to 19.8 µM; IC50 (MDA-MB-468 cells [27]): 4 ± 0.8 µM; IC50 (MDA-MB-231 cells [28]; [31]): 0.3 ± 0.2 µM; Solubility, 20 mg/ml Solution [29]: Precipitate |
| CC(=O)O[C@H]1C(=O)[C@@]2(C)[C@H]([C@H](OC(=O)c3ccccc3)[C@]3(O)C[C@H](OC(=O)[C@H](O)[C@@H](NC(=O)c4ccccc4)c4ccccc4)C(C)=C1C3(C)C)[C@]1(OC(C)=O)CO[C@@H]1C[C@@H]2O [Taxol, paclitaxel, reference compound] | – | – | – | – | – | – | – | – | – | – | – | – | – | – | – | – | – | – | – | – | % Survival (MDA-MB-231 cells [30]): MDA-MB-231 cells + 0.3 nM PTX: % Survival = 47.7%; IC50 (CD34+ cells; Homo sapiens, Hematopoietic stem cell, CD34+ cells from peripheral blood, read-out: CD34+ (PB) IC50): 0.0097 µM; Therapeutic Window (CD34+ cells; ratio IC50 against CD34+ cells and MDA-MB-231 cells (SA)): 6.9X; IC50 (MDA-MB-231 cells [28]; MDA-MB-231, growth in soft agar (SA), read-out: MDA-MB-231 IC50 (SA)): 0.0014 µM |
